Test results from US20260198498A1, “FUNGICIDAL COMPOSITIONS” (SYNGENTA CROP PROTECTION AG, priority 2022, published 2026).

Key:
Pyrenophora teres = test: Example B18: Pyrenophora teres/Barley/Leaf Disc Preventative (Net Blotch); format: in vivo; settings: foliar, barley leaf segments, inoculated 2 days after application
Experimental: Example B18: Pyrenophora teres/Barley/Leaf Disc Preventative (Net Blotch)
Barley leaf segments cv. Hasso are placed on agar in a multiwell plate (24-well format) and sprayed with the formulated test compound diluted in water. The leaf segments are inoculated with a spore suspension of the fungus 2 days after application. The inoculated leaf segments are incubated at 20° C. and 65% rh under a light regime of 12 h light/12 h darkness in a climate cabinet and the activity of a compound is assessed as disease control compared to untreated when an appropriate level of disease damage appears in untreated check leaf segments (5-7 days after application).

[1] = system: Botryotinia fuckeliana (Botrytis cinerea); test: Example B2: Botryotinia fuckeliana (Botrytis cinerea)/Liquid Culture (Gray Mould); format: cell-based; settings: liquid culture, growth inhibition photometrically 3 to 4 days after application, read-out: control of Botryotinia fuckeliana
Experimental: Example B2: Botryotinia fuceliana (Botrytis cinerea)/Liquid Culture (Gray Mould)
(§1) Conidia of the fungus from cryogenic storage are directly mixed into nutrient broth (Vogels broth). After placing a (DMSO) solution of test compound into a microtiter plate (96-well format), the nutrient broth containing the fungal spores is added. The test plates are incubated at 24° C. and the inhibition of growth is determined photometrically 3 to 4 days after application.

[2] = system: Gibberella zeae (Fusarium graminearum); format: in vivo; settings: 200 ppm; wheat spikelets, preventative, inoculated one day after application
[3] = system: Monographella nivalis (Microdochium nivale); test: Example B12: Monographella nivalis (Microdochium nivale)/Liquid Culture (Foot Rot Cereals); format: cell-based; settings: liquid culture, photometrically 4 to 5 days after application, read-out: control of Monographella nivalis
Experimental: Example B12: Monographella nivalis (Microdochium nivale)/Liquid Culture (Foot Rot Cereals)
as §1, with “broth (PDB potato dextrose” for “broth (Vogels”, “photometrically 4” for “photometrically 3”, “to 5” for “to 4”

Alternaria solani = test: Example B1: Alternaria solani/Tomato/Leaf Disc (Early Blight); format: in vivo; settings: foliar, tomato leaf disks, inoculated 2 days after application, compared to untreated control
Experimental: Example B1: Alternaria solani/Tomato/Leaf Disc (Early Blight)
Tomato leaf disks cv. Baby are placed on agar in multiwell plates (24-well format) and sprayed with the formulated test compound diluted in water. The leaf disks are inoculated with a spore suspension of the fungus 2 days after application. The inoculated leaf disks are incubated at 23° C./21° C. (day/night) and 80% rh under a light regime of 12/12 h (light/dark) in a climate cabinet and the activity of a compound is assessed as percent disease control compared to untreated when an appropriate level of disease damage appears on untreated check leaf disks (5-7 days after application).

Fusarium culmorum = format: in vivo; settings: 200 ppm; wheat spikelets, preventative, inoculated 1 day after application
[4] = system: Glomerella lagenarium (Colletotrichum lagenarium); test: Example B5: Glomerella lagenarium (Colletotrichum lagenarium)/Liquid Culture (Anthracnose); format: cell-based; settings: Colletotrichum orbiculare, liquid culture, photometrically 3 to 4 days after application, read-out: control of Glomerella lagenarium
Experimental: Example B5: Glomerella lagenarium (Colletotrichum lagenarium)/Liquid Culture (Anthracnose)
as §1, with “(PDB potato dextrose” for “(Vogels”, “measured” for “determined”

[5] = system: Phaeosphaeria nodorum (Septoria nodorum); test: Example B11: Phaeosphaeria nodorum (Septoria nodorum)/Wheat/Leaf Disc Preventative (Glume Blotch); format: in vivo; settings: Parastagonospora nodorum, foliar, wheat leaf segments, inoculated 2 days after application
Experimental: Example B11: Phaeosphaeria nodorum (Septoria nodorum)/Wheat/Leaf Disc Preventative (Glume Blotch)
Wheat leaf segments cv. Kanzler are placed on agar in a multiwell plate (24-well format) and sprayed with the formulated test compound diluted in water. The leaf disks are inoculated with a spore suspension of the fungus 2 days after application. The inoculated test leaf disks are incubated at 20° C. and 75% rh under a light regime of 12 h light/12 h darkness in a climate cabinet and the activity of a compound is assessed as percent disease control compared to untreated when an appropriate level of disease damage appears in untreated check leaf disks (5-7 days after application).

[6] = system: Mycosphaerella arachidis (Cercospora arachidicola); test: Example B13: Mycosphaerella arachidis (Cercospora arachidicola)/Liquid Culture (Early Leaf Spot); format: cell-based; settings: liquid culture, photometrically 4 to 5 days after application, read-out: control of Mycosphaerella arachidis
Experimental: Example B13: Mycosphaerella arachidis (Cercospora arachidicola)/Liquid Culture (Early Leaf Spot)
as §1, with “broth (PDB potato dextrose” for “broth (Vogels”, “photometrically 4” for “photometrically 3”, “to 5” for “to 4”

[7] = system: Mycosphaerella graminicola (Septoria tritici); test: Example B21: Mycosphaerella graminicola (Septoria tritici)/Liquid Culture (Septoria Blotch); format: cell-based; settings: Zymoseptoria tritici, liquid culture, photometrically 4-5 days after application, read-out: control of Mycosphaerella graminicola
Experimental: Example B21: Mycosphaerella graminicola (Septoria tritici)/Liquid Culture (Septoria Blotch)
as §1, with “(PDB potato dextrose” for “(Vogels”, “4-5” for “3 to 4”

[8] = Comparison of fungicidal activity of the separated stereoisomers (peaks 1 to 4); settings: SFC-separated stereoisomers of Example P3
[9] = system: Puccinia recondita f. sp. tritici; test: Example B16: Puccinia recondita f. sp. tritici/Wheat/Leaf Disc Preventative (Brown Rust); format: in vivo; settings: 200 ppm, wheat leaf segments, inoculated 1 day after application
Experimental: Example B16: Puccinia recondita f. sp. tritici/Wheat/Leaf Disc Preventative (Brown Rust)
Wheat leaf segments cv. Kanzler are placed on agar in multiwell plates (24-well format) and sprayed with the formulated test compound diluted in water. The leaf disks are inoculated with a spore suspension of the fungus 1 day after application. The inoculated leaf segments are incubated at 19° C. and 75% rh under a light regime of 12 h light/12 h darkness in a climate cabinet and the activity of a compound is assessed as percent disease control compared to untreated when an appropriate level of disease damage appears in untreated check leaf segments (7-9 days after application).

[10] = system: Thanatephorus cucumeris (Rhizoctonia solani); test: Example B19: Thanatephorus cucumeris (Rhizoctonia solani)/Liquid Culture (Foot Rot, Damping-Off); format: cell-based; settings: 20 ppm; liquid culture, photometrically 3-4 days after application
Experimental: Example B19: Thanatephorus cucumeris (Rhizoctonia solani)/Liquid Culture (Foot Rot, Damping-Off)
Mycelia fragments of a newly grown liquid culture of the fungus are directly mixed into nutrient broth (PDB potato dextrose broth). After placing a (DMSO) solution of the test compounds into a microtiter plate (96-well format), the nutrient broth containing the fungal material is added. The test plates are incubated at 24° C. and the inhibition of growth is determined photometrically 3-4 days after application.

[11] = system: Magnaporthe grisea (Pyricularia oryzae); format: in vivo; settings: 200 ppm; rice leaf segments, preventative, inoculated 2 days after application
Plasmopara viticola = format: in vivo; settings: 200 ppm; grape vine leaf disks, preventative, inoculated 1 day after application

| SMILES | pest or weed control at 200 ppm (Pyrenophora teres) [%] | inhibition of growth at 20 ppm [1] [%] | control of Gibberella zeae [2] | inhibition of growth at 20 ppm [3] [%] | pest or weed control at 200 ppm (Alternaria solani) [%] | control of Fusarium culmorum (Fusarium culmorum) | inhibition of growth at 20 ppm [4] [%] | pest or weed control at 200 ppm [5] [%] | inhibition of growth at 20 ppm [6] [%] | inhibition of growth at 20 ppm [7] [%] | fungicidal activity compared with the other enantiomer [8] | control of Puccinia recondita f. sp. tritici [9] | control of Thanatephorus cucumeris [10] | control of Magnaporthe grisea [11] | control of Plasmopara viticola (Plasmopara viticola) |
| --- | --- | --- | --- | --- | --- | --- | --- | --- | --- | --- | --- | --- | --- | --- | --- |
| Cc1c([C@H]2CN(C(=O)c3cc(-c4ncc(F)cc4F)on3)[C@@H](C)c3ccccc32)cnn1C (racemic) [X.21, [5-(3,5-difluoro-2-pyridyl)isoxazol-3-yl]-[rac-(1S,4S)-4-(1,5-dimethylpyrazol-4-yl)-1-methyl-3,4-dihydro-1H-isoquinolin-2-yl]methanone] | ≥ 80 | ≥ 80 | at least 80% | ≥ 80 | ≥ 80 | at least 80% | ≥ 80 | ≥ 80 | ≥ 80 | ≥ 80 |  |  |  |  |  |
| C[C@H]1c2ccccc2[C@@](C)(c2cnn(C)c2)CN1C(=O)c1cc(-c2ccc(F)cc2F)on1 (single isomer, unassigned) [X.22] |  |  |  |  |  |  |  |  |  |  | more fungicidally active than the compound of peak 3 |  |  |  |  |
| C[C@@H]1c2ccccc2[C@@](C)(c2cnn(C)c2)CN1C(=O)c1cc(-c2ccc(F)cc2F)on1 (single isomer, unassigned) [peak 1] |  |  |  |  |  |  |  |  |  |  | more fungicidally active than the compound of peak 2 |  |  |  |  |
| Cc1c(C2CN(C(=O)c3nc(-c4ccc(F)cc4F)no3)Cc3ccccc32)cnn1C (stereo not drawn) [X.02, [3-(2,4-difluorophenyl)-1,2,4-oxadiazol-5-yl]-[4-(1,5-dimethylpyrazol-4-yl)-3,4-dihydro-1H-isoquinolin-2-yl]methanone] |  | ≥ 80 |  | ≥ 80 | ≥ 80 |  | ≥ 80 | ≥ 80 | ≥ 80 | ≥ 80 |  |  |  |  |  |
| Cn1cc(C2(C)CN(C(=O)c3cc(-c4ccc(F)cc4F)on3)Cc3ccccc32)cn1 (stereo not drawn) [X.14, [5-(2,4-difluorophenyl)isoxazol-3-yl]-[4-methyl-4-(1-methylpyrazol-4-yl)-1,3-dihydroisoquinolin-2-yl]methanone] | ≥ 80 | ≥ 80 |  | ≥ 80 |  |  | ≥ 80 | ≥ 80 | ≥ 80 | ≥ 80 |  |  |  |  |  |
| Cc1c(C2CN(C(=O)c3cc(-c4ccc(F)cc4F)on3)Cc3ccccc32)cnn1C (stereo not drawn) [X.16, [5-(2,4-difluorophenyl)isoxazol-3-yl]-[4-(1,5-dimethylpyrazol-4-yl)-3,4-dihydro-1H-isoquinolin-2-yl]methanone] | ≥ 80 | ≥ 80 |  | ≥ 80 |  |  | ≥ 80 | ≥ 80 | ≥ 80 | ≥ 80 |  | at least 80% | at least 80% | at least 80% |  |
| Cn1cc(C2CN(C(=O)c3noc(-c4ccccc4)n3)Cc3ccccc32)cn1 (stereo not drawn) [X.17, [4-(1-methylpyrazol-4-yl)-3,4-dihydro-1H-isoquinolin-2-yl]-(5-phenyl-1,2,4-oxadiazol-3-yl)methanone] |  | ≥ 80 |  | ≥ 80 |  |  |  | ≥ 80 | ≥ 80 | ≥ 80 |  |  |  |  | at least 80% |
